According to ChEMBL document CHEMBL4616683, “Inhibitors of Hypoxia-Inducible Factors as Treatment for Cancer” (ACS Med Chem Lett, 2020):

Legend:
[1] = target: T1, Endothelial PAS domain-containing protein 1 (Homo sapiens, UniProt Q99814)
Description: Inhibition of human recombinant His6Gb1-tagged HIF2alpha PAS B domain (240 to 350 residues)/human recombinant His6/FLAG-tagged ARNT PAS B domain (356 to 470 residues) interaction incubated for 15 mins by AlphaScreen assay

[2] = target: T1, Endothelial PAS domain-containing protein 1; remark: listed apart in the source
Description: Inhibition of HIF2-alpha in human 786-0 cells harboring HRE-Luc2P reporter construct incubated for 48 hrs by ONE-Glo EX reagent based luminescence assay

T1 sequence (Q99814 whole entry, the tested form may be a part): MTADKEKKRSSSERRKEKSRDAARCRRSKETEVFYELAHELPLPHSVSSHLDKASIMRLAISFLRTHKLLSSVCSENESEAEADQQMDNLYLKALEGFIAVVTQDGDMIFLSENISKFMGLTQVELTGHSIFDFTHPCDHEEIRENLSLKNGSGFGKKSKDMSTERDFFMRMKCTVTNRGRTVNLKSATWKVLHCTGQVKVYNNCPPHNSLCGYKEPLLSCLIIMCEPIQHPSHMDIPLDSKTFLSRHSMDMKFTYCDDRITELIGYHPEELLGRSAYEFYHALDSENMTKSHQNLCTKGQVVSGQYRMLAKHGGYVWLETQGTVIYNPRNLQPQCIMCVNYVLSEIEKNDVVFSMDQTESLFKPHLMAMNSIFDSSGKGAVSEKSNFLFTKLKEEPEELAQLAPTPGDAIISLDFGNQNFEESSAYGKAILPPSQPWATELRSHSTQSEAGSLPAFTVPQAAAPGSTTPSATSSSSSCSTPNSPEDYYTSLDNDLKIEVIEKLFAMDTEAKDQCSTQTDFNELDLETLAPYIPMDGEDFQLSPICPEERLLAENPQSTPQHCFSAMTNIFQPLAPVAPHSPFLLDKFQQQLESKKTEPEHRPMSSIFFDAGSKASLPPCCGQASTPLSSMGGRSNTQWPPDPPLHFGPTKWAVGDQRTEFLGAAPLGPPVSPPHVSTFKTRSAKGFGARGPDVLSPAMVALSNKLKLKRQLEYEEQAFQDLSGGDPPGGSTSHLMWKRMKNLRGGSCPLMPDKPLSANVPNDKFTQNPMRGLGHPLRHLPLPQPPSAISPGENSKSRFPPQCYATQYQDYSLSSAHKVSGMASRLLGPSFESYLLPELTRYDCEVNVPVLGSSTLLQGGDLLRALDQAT

IC50 [1]: > 1000 nM
IC50 [2]: > 1000 nM
SMILES: Cn1nc(C(F)(F)F)cc1-c1sc(S(C)(=O)=O)c2c1CCC(F)(F)[C@H]2O
